Patent publication US7271239B2, “D-isomers of antimicrobial peptide” (The Research Foundation of State University of New York, priority 2004, dated 2007)
In brackets after ≈: the same amount, converted by molar mass. Where a SMILES comes first, the peptide text is derived from it. Where no end group is shown, it is not given here.

Assays:
[1] = Stability of peptides in saliva (SDS-PAGE); assay type: in vitro ADME, human
Protocol: FIGS. 3A and 3B. Stability of antimicrobial peptides in (3A) Trypsin and (3B) unclarified saliva. Each peptide (3 μg in 5 μl of 0.5 M Tris-HCl buffer pH 7.5) was incubated with: 0.2 μg/ml trypsin containing PIC or no PIC for 0.5 h; or saliva (10 μl) for 1 h. The control of each compound was also incubated with Tris-HCl buffer in parallel. The samples were analyzed by 13% SDS-PAGE. The gel was stained with Coomassie brilliant blue and further analyzed for the peptide degradation by GS-700 Imaging Densitometer. The degradation was estimated by the equation: 1−(density of test band/density of control band)×100%. Ctrol: each peptide alone; T: trypsin plus peptide; T+PIC: trypsin containing PIC plus peptide; S: saliva plus peptide; S+PIC: saliva containing PIC plus peptide.
Stability of peptides in saliva and susceptibility of septides to trypsin. Three microliters of each peptide (MUC7 12-mer-D, MUC7 12-mer-L, Hsn5 12-mer, or Magainin-II, at 1 μg/μl in 0.2 M Tris-HCl buffer pH 7.5) were incubated with 11 μl of 0.2 μg/ml trypsin or saliva. This gave a final concentration of 0.16 μg/ml for trypsin, and 0.2 μg/μl for peptides (or 127, 127, 128, and 81 μM, for MUC7 12-mer-D, MUC7 12-mer-L, Hsn5 12-mer, or Magainin II, respectively). The reactions, without PIC (water instead or PIC) or with 1×PIC [50% (v/v)] were incubated 0.5 h with trypsin, and 1 hr with saliva (clarified or unclarified) at 37° C. The control of each compound was also incubated with Tris-HCl buffer in parallel. The samples were analyzed by 13% SDS-PAGE. Gels was stained with Coomassie brilliant blue R-250 and further analyzed for the peptide degradation by GS-700 Imaging Densitometer (Bio Red). The degradation was estimated by the equation: 1−(density of test band/density of control band)×100%.

S. mutans = test: microbe, parasite or virus in culture; details: for MBC (μM): median of four strains; for MIC: median of four strains (GS-5, GS-5 gtfBCD, AU 159, ATCC10449), 25% BHI, 48 h
From the text: (§1) The bacteria used in this study included Streptococcus mutans ATCC10449, Streptococcus mutans AU 159, Streptococcus mutans GS-5, Streptococcus mutans GS-5 mutant (^gtf BCD), Streptococcus gordonii Challis, Porphyromonas gingivalis W50, Porphyromonas gingivalis 381, A. actinomycetemcomitans NCTC 9710, Pseudomonas aeruginosa ATCC 17648, and Escherichia coli HB101. One quarter strength (25%) of brain heart infusion broth (BHI, DIFCO Laboratories, Detroit, Mich.) was used for the growth of S. mutans, S. gordonii, A. actinomycetemcomitans, Ps. aeruginosa, and E. coli. For growth of P. gingivalis, tryptic soy broth-yeast extract medium (TSBY, DIFCO Laboratories, Detroit, Mich.) supplemented with cysteine hydrochloride (0.05%), menadione (0.02 μg/ml), hemin (5 μg/ml), and potassium nitrate (0.02%) was used. All bacteria were cultured at 37° C.; Ps. aeruginosa and E. coli were grown aerobically, and the other bacteria, anaerobically. To prepare bacterial cell suspension for antibacterial activity assays, each overnight culture was harvested by centrifuge (3783 g, 10 min), washed once with 10 mM sodium phosphate-buffered saline (PBS, pH 7.2), resuspended in PBS and adjusted to a concentration of 1×10^6 cells/mL.
(§2) MICs of the peptides were determined by broth microdilution method as previously described (5). Briefly, two-fold serial dilutions of each peptide were prepared with 25% BHI medium at a volume of 200 μl per well in 96-well flat-bottom microtiter plates (Costar, Cambridge, Mass.). The final concentration of the peptides ranged from 0.78 to 100 μM, and chlorhexidine (CHX), used as a positive control, from 20 to 0.16 μM (10 to 0.078 μg/mL). The microtiter plate was inoculated with bacterial cell suspension with final concentration of 5×10^6 CFU/mL for P. gingivalis and 5×10^5 CFU/mL for the other bacterial species. After incubation at 37° C. for 48 h, the absorbance was measured at 595 nm by using a microplate reader (Model 3550, Bio-Rad, Japan) to assess the cell growth. […] The MIC value represents the median of at least three independent experiments. The minimal bactericidal concentration (MBC) was determined as follows. Aliquot (100 μl) of cell suspension was taken from two wells above MIC, centrifuged, and washed three times with PBS. Then each cell suspension was plated on TSBY agar plate, and bacterial cells were enumerated after incubation at 37° C. for 48 h. The MBC was defined as the lowest concentration of the peptide at which more than 99.9% of cells were killed compared to non-treated control.

[2] = system: A. actinomycetemcomitans NCTC 9710; test: microbe, parasite or virus in culture; assay type: cell-based; details: NCTC 9710
From the text: as §1, §2

P. gingivalis = test: microbe, parasite or virus in culture; assay type: cell-based, Porphyromonas gingivalis
From the text: as §1, §2

[3] = system: Ps. aeruginosa ATCC 17648; test: microbe, parasite or virus in culture; assay type: cell-based, Pseudomonas aeruginosa; details: ATCC 17648
From the text: as §1, §2

E. coli HB101 = test: microbe, parasite or virus in culture; assay type: cell-based, Escherichia coli
From the text: as §1, §2

[4] = system: S. mutans GS-5 1-day biofilm; assay type: cell-based, Streptococcus mutans; details: GS-5 1-day biofilm, 24 h
Protocol: FIG. 12. Effect of peptides on 1-day biofilm of S. mutans. One-day mature biofilm was prepared as described above. BHI medium supplemented with 1% sucrose (BHIS) with peptides, prepared in another microtiter plate, was then transferred to the biofilm plate. After further incubation at 37° C. for 24 h, the biofilm was fixed, stained, and quantified as describe above. Data represents mean and SD of two independent tests performed in duplicated. Empty bar: growth, solid bar: biofilm.
To examine the effects of the peptides on 1-day mature biofilm, S. mutans GS-5 was inoculated into the wells of another polystyrene microtiter plate containing BHIS at a volume of 200 μl per well. After incubation at 37° C. for 24 h, the culture supernatants from each well were decanted and planktonic cells were removed by washing with PBS. BHIS containing 0.78 to 100 μM peptides, prepared in another microtiter plate, was then transferred to the 1-day biofilm plate, and further incubated at 37° C. for one day. The biofilm was fixed, stained, and quantified as describe above.

## AKRHHGYKRKFH [Hsn5 12-mer]
[1]
  degradation by saliva: degraded
S. mutans
  MBC (μM): 50.0 µM
  MIC: 25 µM
[2]
  MBC (μM): >100 µM
  MBC (μg/ml): >158 µg/mL
  MIC (μM): >100 µM
  MIC (μg/ml): >158 µg/mL
P. gingivalis
  MIC (μM): >100 µM
  MIC (μg/ml): >158 µg/mL
[3]
  MBC (μM): >100 µM
  MBC (μg/ml): >158 µg/mL
  MIC (μM): >100 µM
  MIC (μg/ml): >158 µg/mL
E. coli HB101
  MBC (μM): 100.0 µM
  MIC (μM): 100.0 µM
[4]
  MBEC50 (μM): >50 µM
  MBEC50 (μg/ml): >78 µg/mL

## CC(C)C[C@H](NC(=O)[C@H](CS)NC(=O)[C@H](CCCCN)NC(=O)[C@H](Cc1ccc(O)cc1)NC(=O)[C@H](CO)NC(=O)[C@H](CCCCN)NC(=O)[C@@H](N)CCCNC(=N)N)C(=O)N[C@@H](Cc1c[nH]cn1)C(=O)N[C@@H](CCCCN)C(=O)N[C@@H](CCCNC(=N)N)C(=O)N[C@@H](CS)C(=O)N[C@@H](CCCNC(=N)N)C(=O)O [MUC7 12-mer-L] (H-RKSYKCLHKRCR-OH; N-terminus and C-terminus assumed)
[1]
  degradation by saliva: degraded
S. mutans
  MBC (μM): 12.5 µM (≈ 19.7 µg/mL)
  MIC: 12.5 µM (≈ 19.7 µg/mL)
[2]
  MBC (μM): >100 µM
  MBC (μg/ml): >158 µg/mL
  MIC (μM): >100 µM
  MIC (μg/ml): >158 µg/mL
P. gingivalis
  MIC (μM): >100 µM
  MIC (μg/ml): >158 µg/mL
[3]
  MBC (μM): >100 µM
  MBC (μg/ml): >158 µg/mL
  MIC (μM): >100 µM
  MIC (μg/ml): >158 µg/mL
E. coli HB101
  MBC (μM): 25.0 µM (≈ 39.4 µg/mL)
  MIC (μM): 25.0 µM (≈ 39.4 µg/mL)
[4]
  MBEC50 (μM): 50 µM
